Source: ChEMBL document CHEMBL1201862, “PubChem BioAssay data set” (2004)
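Growth conditions: 96-well plates. Treatment: test compound, 48 hours, 5 concentrations. Analysis: linear interpolation between bracketing concentrations; unreached endpoints set to highest concentration. Here, GI50 denotes the concentration required for 50% inhibition of growth.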 Activity calls are given as the source filed them. No stated cut-off is given here; in the data, active = GI50 up to about 1.1 µM and inactive = higher.

What was measured:
Assay in all cases: inhibition of tumour cell growth, NCI panel, 48 h
SK-OV-3 = tested on: SK-OV-3
DMS-273 = tested on: DMS-273
KM12 = tested on: KM12
HT-29 = tested on: HT-29
RPMI-8226 = tested on: RPMI-8226
EKVX = tested on: EKVX
COLO 205 = tested on: COLO 205
HL-60 = tested on: HL-60
UO-31 = tested on: UO-31
IGROV-1 = tested on: IGROV-1
LOX IMVI = tested on: LOX IMVI
CAKI-1 = tested on: CAKI-1
HCT-15 = tested on: HCT-15
SK-MEL-2 = tested on: SK-MEL-2
SK-MEL-5 = tested on: SK-MEL-5
SNB-75 = tested on: SNB-75
NCI-H226 = tested on: NCI-H226
HCT-116 = tested on: HCT-116
NCI-H522 = tested on: NCI-H522
SW-620 = tested on: SW-620
SF-539 = tested on: SF-539
HOP-62 = tested on: HOP-62
OVCAR-5 = tested on: OVCAR-5
SR = tested on: SR
CCRF-CEM = tested on: CCRF-CEM
K562 = tested on: K562
HOP-92 = tested on: HOP-92
M14 = tested on: M14
SF-268 = tested on: SF-268
UACC-62 = tested on: UACC-62
SN12C = tested on: SN12C
NCI-H23 = tested on: NCI-H23
OVCAR-8 = tested on: OVCAR-8
NCI-H460 = tested on: NCI-H460
DLD-1 = tested on: DLD-1
Malme-3M = tested on: Malme-3M
786-0 = tested on: 786-0
SF-295 = tested on: SF-295
ACHN = tested on: ACHN
M19-MEL = tested on: M19-MEL
SNB-78 = tested on: SNB-78
LXFL 529 = tested on: LXFL 529
U-251 = tested on: U-251
DMS-114 = tested on: DMS-114
OVCAR-4 = tested on: OVCAR-4
MOLT-4 = tested on: MOLT-4
OVCAR-3 = tested on: OVCAR-3
BT-549 = tested on: BT-549
TK-10 = tested on: TK-10
NCI/ADR-RES = tested on: NCI/ADR-RES
RXF 393 = tested on: RXF 393
T47D = tested on: T47D
SK-MEL-28 = tested on: SK-MEL-28
A549 = tested on: A549
PC-3 = tested on: PC-3
MDA-MB-231 = tested on: MDA-MB-231
MCF7 = tested on: MCF7
SNB-19 = tested on: SNB-19
UACC-257 = tested on: UACC-257
MDA-N = tested on: MDA-N
MDA-MB-435 = tested on: MDA-MB-435
DU-145 = tested on: DU-145
A498 = tested on: A498
Hs-578T = tested on: Hs-578T
HCC 2998 = tested on: HCC 2998

OCC(O)C(O)C(O)c1nnn[nH]1 (stereo not given)
GI50 (SK-OV-3): > 100 µM (inactive)
GI50 (DMS-273): > 100 µM (inactive)
GI50 (KM12): > 100 µM (inactive)
GI50 (HT-29): > 100 µM (inactive)
GI50 (RPMI-8226): > 100 µM (inactive)
GI50 (EKVX): > 100 µM (inactive)
GI50 (COLO 205): > 100 µM (inactive)
GI50 (HL-60): > 100 µM (inactive)
GI50 (UO-31): > 100 µM (inactive)
GI50 (IGROV-1): > 100 µM (inactive)
GI50 (LOX IMVI): > 100 µM (inactive)
GI50 (CAKI-1): > 100 µM (inactive)
GI50 (HCT-15): > 100 µM
GI50 (SK-MEL-2): > 100 µM (inactive)
GI50 (SK-MEL-5): > 100 µM (inactive)
GI50 (SNB-75): > 100 µM (inactive)
GI50 (NCI-H226): 34.8 µM (inactive)
GI50 (HCT-116): > 100 µM (inactive)
GI50 (NCI-H522): > 100 µM (inactive)
GI50 (SW-620): > 100 µM (inactive)
GI50 (SF-539): > 100 µM (inactive)
GI50 (HOP-62): > 100 µM (inactive)
GI50 (OVCAR-5): > 100 µM (inactive)
GI50 (SR): > 100 µM (inactive)
GI50 (CCRF-CEM): > 100 µM (inactive)
GI50 (K562): > 100 µM (inactive)
GI50 (HOP-92): > 100 µM (inactive)
GI50 (M14): > 100 µM (inactive)
GI50 (SF-268): > 100 µM (inactive)
GI50 (UACC-62): > 100 µM (inactive)
GI50 (SN12C): > 100 µM (inactive)
GI50 (NCI-H23): > 100 µM (inactive)
GI50 (OVCAR-8): > 100 µM (inactive)
GI50 (NCI-H460): > 100 µM (inactive)
GI50 (DLD-1): > 100 µM (inactive)
GI50 (Malme-3M): > 100 µM (inactive)
GI50 (786-0): > 100 µM (inactive)
GI50 (SF-295): > 100 µM (inactive)
GI50 (ACHN): > 100 µM (inactive)
GI50 (M19-MEL): > 100 µM (inactive)
GI50 (SNB-78): > 100 µM (inactive)
GI50 (LXFL 529): > 100 µM (inactive)
GI50 (U-251): > 100 µM (inactive)
GI50 (DMS-114): > 100 µM (inactive)
GI50 (OVCAR-4): > 100 µM (inactive)
GI50 (MOLT-4): > 100 µM (inactive)
GI50 (OVCAR-3): > 100 µM (inactive)

COc1ccc(-c2cc(C(O)C3CCCCN3)c3ccccc3n2)cc1 (stereo not given)
GI50 (SK-OV-3): 14.2 µM (inactive)
GI50 (KM12): 4.14 µM (inactive)
GI50 (HT-29): 3.11 µM (inactive)
GI50 (BT-549): 15.9 µM (inactive)
GI50 (RPMI-8226): 2.33 µM (inactive)
GI50 (EKVX): 6.92 µM (inactive)
GI50 (COLO 205): 1.89 µM (inactive)
GI50 (HL-60): 11.1 µM (inactive)
GI50 (TK-10): 10.4 µM (inactive)
GI50 (UO-31): 3.59 µM (inactive)
GI50 (IGROV-1): 8.45 µM (inactive)
GI50 (NCI/ADR-RES): 16.7 µM (inactive)
GI50 (LOX IMVI): 2.62 µM (inactive)
GI50 (CAKI-1): 5.86 µM (inactive)
GI50 (RXF 393): 4.58 µM (inactive)
GI50 (T47D): 4 µM (inactive)
GI50 (HCT-15): 14.2 µM
GI50 (SK-MEL-2): 6.12 µM (inactive)
GI50 (SK-MEL-28): 2.43 µM (inactive)
GI50 (SK-MEL-5): 6.25 µM (inactive)
GI50 (SNB-75): 4.31 µM (inactive)
GI50 (NCI-H226): 7.06 µM (inactive)
GI50 (HCT-116): 9.35 µM (inactive)
GI50 (NCI-H522): 7.05 µM (inactive)
GI50 (SW-620): 9.59 µM (inactive)
GI50 (SF-539): 10.1 µM (inactive)
GI50 (A549): 13.8 µM (inactive)
GI50 (HOP-62): 11.7 µM (inactive)
GI50 (PC-3): 5.08 µM (inactive)
GI50 (OVCAR-5): 12 µM (inactive)
GI50 (SR): 0.394 µM (active)
GI50 (CCRF-CEM): 2.8 µM (inactive)
GI50 (K562): 2.54 µM (inactive)
GI50 (HOP-92): 2.86 µM (inactive)
GI50 (MDA-MB-231): 2.36 µM (inactive)
GI50 (M14): 2.14 µM (inactive)
GI50 (SF-268): 11.2 µM (inactive)
GI50 (UACC-62): 3.37 µM (inactive)
GI50 (SN12C): 10.6 µM (inactive)
GI50 (NCI-H23): 13.4 µM (inactive)
GI50 (MCF7): 3.87 µM (inactive)
GI50 (OVCAR-8): 13.7 µM (inactive)
GI50 (NCI-H460): 3.05 µM (inactive)
GI50 (SNB-19): 13.7 µM (inactive)
GI50 (Malme-3M): 13.6 µM (inactive)
GI50 (786-0): 8.34 µM (inactive)
GI50 (UACC-257): 2.15 µM (inactive)
GI50 (SF-295): 14.7 µM (inactive)
GI50 (ACHN): 11.9 µM (inactive)
GI50 (MDA-N): 4.92 µM (inactive)
GI50 (MDA-MB-435): 3.73 µM (inactive)
GI50 (DU-145): 8.39 µM (inactive)
GI50 (U-251): 3.63 µM (inactive)
GI50 (A498): 12.3 µM (inactive)
GI50 (OVCAR-4): 13.7 µM (inactive)
GI50 (Hs-578T): 14.3 µM (inactive)
GI50 (MOLT-4): 3.59 µM (inactive)
GI50 (OVCAR-3): 14.4 µM (inactive)
GI50 (HCC 2998): 2.19 µM (inactive)

CC(NNC(=O)c1cc[n+]([BH2-]C#N)cc1)c1ccc(F)cc1 (stereo not given)
GI50 (SK-OV-3): > 100 µM (inactive)
GI50 (KM12): > 100 µM (inactive)
GI50 (HT-29): > 100 µM (inactive)
GI50 (BT-549): > 100 µM (inactive)
GI50 (RPMI-8226): > 100 µM (inactive)
GI50 (EKVX): > 100 µM (inactive)
GI50 (COLO 205): > 100 µM (inactive)
GI50 (HL-60): > 100 µM (inactive)
GI50 (TK-10): > 100 µM (inactive)
GI50 (UO-31): > 100 µM (inactive)
GI50 (IGROV-1): > 100 µM (inactive)
GI50 (NCI/ADR-RES): > 100 µM (inactive)
GI50 (LOX IMVI): > 100 µM (inactive)
GI50 (CAKI-1): > 100 µM (inactive)
GI50 (RXF 393): > 100 µM (inactive)
GI50 (T47D): > 100 µM (inactive)
GI50 (HCT-15): > 100 µM
GI50 (SK-MEL-2): > 100 µM (inactive)
GI50 (SK-MEL-28): > 100 µM (inactive)
GI50 (SK-MEL-5): > 100 µM (inactive)
GI50 (SNB-75): > 100 µM (inactive)
GI50 (NCI-H226): > 100 µM (inactive)
GI50 (HCT-116): > 100 µM (inactive)
GI50 (NCI-H522): > 100 µM (inactive)
GI50 (SW-620): > 100 µM (inactive)
GI50 (SF-539): > 100 µM (inactive)
GI50 (A549): > 100 µM (inactive)
GI50 (HOP-62): > 100 µM (inactive)
GI50 (PC-3): > 100 µM (inactive)
GI50 (OVCAR-5): > 100 µM (inactive)
GI50 (SR): > 100 µM (inactive)
GI50 (CCRF-CEM): > 100 µM (inactive)
GI50 (K562): > 100 µM (inactive)
GI50 (HOP-92): > 100 µM (inactive)
GI50 (MDA-MB-231): > 100 µM (inactive)
GI50 (M14): > 100 µM (inactive)
GI50 (SF-268): > 100 µM (inactive)
GI50 (UACC-62): > 100 µM (inactive)
GI50 (SN12C): > 100 µM (inactive)
GI50 (NCI-H23): > 100 µM (inactive)
GI50 (MCF7): > 100 µM (inactive)
GI50 (OVCAR-8): > 100 µM (inactive)
GI50 (NCI-H460): > 100 µM (inactive)
GI50 (SNB-19): > 100 µM (inactive)
GI50 (Malme-3M): > 100 µM (inactive)
GI50 (786-0): > 100 µM (inactive)
GI50 (UACC-257): > 100 µM (inactive)
GI50 (SF-295): > 100 µM (inactive)
GI50 (ACHN): > 100 µM (inactive)
GI50 (MDA-N): > 100 µM (inactive)
GI50 (MDA-MB-435): > 100 µM (inactive)
GI50 (DU-145): > 100 µM (inactive)
GI50 (U-251): > 100 µM (inactive)
GI50 (A498): > 100 µM (inactive)
GI50 (OVCAR-4): > 100 µM (inactive)
GI50 (Hs-578T): > 100 µM (inactive)
GI50 (MOLT-4): > 100 µM (inactive)
GI50 (OVCAR-3): > 100 µM (inactive)
GI50 (HCC 2998): > 100 µM (inactive)
